Marks after values point to notes of the source that are not given here.
Test system: locally advanced (Stage II/III) colon cancer
Experiment: Retrospective study of time to tumor recurrence (TTR) after 5-FU-based adjuvant chemotherapy, by regimen and by TS/MTHFR genotype
Type: in vivo, human
Method: One hundred and ninety-seven (n=197) with locally advanced colon cancer who were treated with 5-FU-based adjuvant chemotherapy [bolus 5-FU: n=30, (15%); infusimal 5-FU: […], (85%)] either at the University of Southern California/Norris Comprehensive Cancer Center (USC/NCCC) or at the Los Angeles County/University of Southern California Medical Center (LAC/USCMC), between 1987 and 2007, were eligible for the present study. This study was conducted at the USC/NCCC and approved by the Institutional Review Board of the University of Southern California for Medical Sciences. Patient data were collected retrospectively through chart review. Informed consent was signed by all patients involved in the study.
Whole blood was collected and genomic DNA was extracted using the QIAamp kit (Qiagen, CA, USA). Samples were tested using polymerase chain reaction restriction fragment length polymorphism (PCR-RFLP) technique. Briefly, forward and reverse primers were used for PCR amplification (see Table 7), PCR products were digested by restriction enzymes (New England Biolab, Massachusetts, USA) and alleles were separated using a 4% NuSieve ethidium bromide stained agarose gel. TS and MTHFR polymorphisms were tested by PCR, followed by allele-specific restriction enzyme digestion method, as previously described (Mandola, M. V. et al. (2003) Cancer Res 63:2898-904; Mandola, M. V. et al. (2004) Pharmacogenetics 14:319-27; Markan, S. et al. (2007) Mol Cell Biochem 302:125-31; Stern, L. L. et al. (2000) Cancer Epidemiol Biomarkers Prev 9:849-53).
The primary endpoint in this study was time to tumor recurrence (TTR) in Stage II/III colon cancer patients, which was defined as the time from the date of diagnosis of Stage II/III colon cancer to the date of first recurrence, […], or until last contact if the patient was free of any tumor recurrence at the time of last contact. If a patient had not recurred, then TTR was censored at the time of death or at the last follow-up. The associations of time to tumor recurrence with patient's clinico-pathologic characteristics (age, sex, race, Stage, tumor grade, T-stage, N-stage and type of adjuvant chemotherapy) were assessed using univariate survival analyses (log-rank test).
Polymorphisms of TS and MTHFR were coded as categorical variables according to their genotypes. The associations between TS and MTHFR polymorphisms and time to recurrence were examined using Kaplan-Meier curves and log-rank test. The distributions of polymorphisms across demographic characteristics were examined using Fisher's exact test. In the univariate survival analysis, the Pike estimate of relative risk (RR) and its associated 95% confidence interval (95% CI) was based on the log-rank test.

[1] = patients receiving 5-FU only, MTHFR A + 1298C A/A
[2] = patients receiving 5-FU only, MTHFR A + 1298C A/C
[3] = patients receiving 5-FU only, MTHFR A + 1298C C/C
[4] = patients receiving 5-FU only, MTHFR C + 677T C/C
[5] = patients receiving 5-FU only, MTHFR C + 677T C/T
[6] = patients receiving 5-FU only, MTHFR C + 677T T/T
[7] = patients receiving 5-FU only, TS-3′UTR +6b/−6bp
[8] = patients receiving 5-FU only, TS-3′UTR +6bp/+6bP
[9] = patients receiving 5-FU only, TS-3′UTR −6bp/−6bp
[10] = patients receiving 5-FU only, TS-5′UTR 2R/2R
[11] = patients receiving 5-FU only, TS-5′UTR 2R/3R
[12] = patients receiving 5-FU only, TS-5′UTR 3R/36
[13] = patients receiving 5-FU only, TS-5′UTR/GC 2R/2R
[14] = patients receiving 5-FU only, TS-5′UTR/GC 2R/3(G)
[15] = patients receiving 5-FU only, TS-5′UTR/GC 2R/3R(C)
[16] = patients receiving 5-FU only, TS-5′UTR/GC 3R(C)/3R(C)
[17] = patients receiving 5-FU only, TS-5′UTR/GC 3R(G)/3R(C)
[18] = patients receiving 5-FU only, TS-5′UTR/GC 3R(G)/3R(G)

For `O=c1[nH]cc(F)c(=O)[nH]1` [5-FU, 5-Fluorouracil], the “Median time to recurrence (TTR) years (95% CI)” value (from here on “Median time … (95% CI)”) (all patients grouped by adjuvant therapy) was 6.6 years, the “Probablility ± SE of 3-year recurrence” value (all patients grouped by adjuvant therapy, Greenwood SE) was 0.35 ± 0.04 and the “Median time … (95% CI)” value [1] was > 16.8^b years. The “Probability ± SE of 3-year recurrence” value [1] was 0.31 ± 0.06, the “Median time … (95% CI)” value [2] was 5.9 years and the “Probability ± SE of 3-year recurrence” value [2] was 0.35 ± 0.08. For the same compound, the Relative risk (patients receiving 5-FU only, MTHFR A + 1298C A/C vs A/A (Reference)) was 1.33, the “Median time … (95% CI)” value [3] was 6.6 years and the “Probability ± SE of 3-year recurrence” value [3] was 0.40 ± 0.22. For the same compound, the Relative risk (patients receiving 5-FU only, MTHFR A + 1298C C/C vs A/A (Reference)) was 1.50, the “Median time … (95% CI)” value [4] was 6.6 years and the “Probability ± SE of 3-year recurrence” value [4] was 0.26 ± 0.07. The “Median time … (95% CI)” value [5] was 5.4 years, the “Probability ± SE of 3-year recurrence” value [5] was 0.41 ± 0.07 and the Relative risk (patients receiving 5-FU only, MTHFR C + 677T C/T vs C/C (Reference)) was 1.30. The “Median time … (95% CI)” value [6] was > 7.4^b years, the “Probability ± SE of 3-year recurrence” value [6] was 0.21 ± 0.09 and the Relative risk (patients receiving 5-FU only, MTHFR C + 677T T/T vs C/C (Reference)) was 0.55. For the same compound, the “Median time … (95% CI)” value [7] was 5.7 years, the “Probability ± SE of 3-year recurrence” value [7] was 0.34 ± 0.07 and the Relative risk (patients receiving 5-FU only, TS-3′UTR +6b/−6bp vs +6bp/+6bP (Reference)) was 1.33. The “Median time … (95% CI)” value [8] was > 16.8^b years, the “Probability ± SE of 3-year recurrence” value [8] was 0.28 ± 0.06 and the “Median time … (95% CI)” value [9] was > 7.7^b years. The “Probability ± SE of 3-year recurrence” value [9] was 0.43 ± 0.12, the Relative risk (patients receiving 5-FU only, TS-3′UTR −6bp/−6bp vs +6bp/+6bP (Reference)) was 1.36 and the “Median time … (95% CI)” value [10] was > 16.8^b years. The “Probability ± SE of 3-year recurrence” value [10] was 0.20 ± 0.08, the “Median time … (95% CI)” value [11] was 4.8 years and the “Probability ± SE of 3-year recurrence” value [11] was 0.42 ± 0.07. The Relative risk (patients receiving 5-FU only, TS-5′UTR 2R/3R vs 2R/2R (Reference)) was 1.94, the “Median time … (95% CI)” value [12] was 6.6 years and the “Probability ± SE of 3-year recurrence” value [12] was 0.29 ± 0.08. The Relative risk (patients receiving 5-FU only, TS-5′UTR 3R/36 vs 2R/2R (Reference)) was 1.43, the “Median time … (95% CI)” value [13] was > 16.8^b years and the “Probability ± SE of 3-year recurrence” value [13] was 0.20 ± 0.08. The “Median time … (95% CI)” value [14] was 4.8 years, the “Probability ± SE of 3-year recurrence” value [14] was 0.44 ± 0.10 and the Relative risk (patients receiving 5-FU only, TS-5′UTR/GC 2R/3(G) vs 2R/2R (Reference)) was 1.81. For the same compound, the “Median time … (95% CI)” value [15] was 5.9 years, the “Probability ± SE of 3-year recurrence” value [15] was 0.38 ± 0.10 and the Relative risk (patients receiving 5-FU only, TS-5′UTR/GC 2R/3R(C) vs 2R/2R (Reference)) was 1.79. The “Median time … (95% CI)” value [16] was > 13.3^b years, the “Probability ± SE of 3-year recurrence” value [16] was 0.17 ± 0.11 and the Relative risk (patients receiving 5-FU only, TS-5′UTR/GC 3R(C)/3R(C) vs 2R/2R (Reference)) was 0.46. The “Median time … (95% CI)” value [17] was 5.7 years, the “Probability ± SE of 3-year recurrence” value [17] was 0.24 ± 0.12 and the Relative risk (patients receiving 5-FU only, TS-5′UTR/GC 3R(G)/3R(C) vs 2R/2R (Reference)) was 1.44. The “Median time … (95% CI)” value [18] was 1.4 years, the “Probability ± SE of 3-year recurrence” value [18] was 0.61 ± 0.17 and the Relative risk (patients receiving 5-FU only, TS-5′UTR/GC 3R(G)/3R(G) vs 2R/2R (Reference)) was 4.74.

Source: patent US20110160216A1, “Thymidylate Synthase Haplotype is Associated with Tumor Recurrence in Stage II and Stage III Colon Cancer Patients” (UNIVERSITY OF SOUTHEM CALIFORNIA, priority 2008, published 2011)
